Assay results taken from patent US20230181721A1 (priority 2020, published 2023).

Columns and labels:
human PBMC = type: cell-based
HLA-A2.1 transgenic mice [1] = details: mouse, in vivo
HLA-A2.1 transgenic mice [2] = details: mouse, in vivo; remark: listed apart in the source
HLA-A2.1 transgenic mice [3] = details: mouse, in vivo; remark: listed apart in the source

| Substance | Patient response (human PBMC) | ELIspot (YES/NO) (HLA-A2.1 transgenic mice [1]) | tetramer response (HLA-A2.1 transgenic mice [2]) | Trm (response) (HLA-A2.1 transgenic mice [3]) | Trm response (HLA-A2.1 transgenic mice [3]) |
| --- | --- | --- | --- | --- | --- |
| ALSKGVHFV [3_wt] | Yes | Yes | medium | No | No |
| AVSKGVHFI [3_neoB] | – | Yes | medium | – | No |
| CLEASFNYV [5_neoA] | Yes | No | medium | Yes | Yes |
| FLAGLIAIV [6_neoA] | Yes | Yes | high | Yes | Yes |
| FLLNKEMYL [8_wt] | Yes | Yes | medium | No | No |
| FMAGLIAIV [6_neoB] | – | Yes | medium | – | No |
| FTAHIQWMV [7_neoB] | – | Yes | medium | – | No |
| GLMWLSYFV [14_neoA] | Yes | Yes | medium | No | No |
| GLSRIGMEV [15_neoA] | – | No | high | – | No |
| GTSRIGMEV [15_neoB] | – | No | high | – | No |
| KLADYNYKV [19_neoA] | Yes | Yes | low | – | – |
| KLKDCVMYA [20_wt] | – | No | medium | – | Yes |
| KLSYGIATE [22_neoB] | – | No | high | – | No |
| LALLLLDRL [23_wt] | Yes | Yes | medium | Yes | Yes |
| LLLDRLNQV [25_neoA] | – | Yes | medium | – | No |
| LLLPQGTTV [29_neoA] | Yes | No | medium | Yes | Yes |
| LLLTILTSV [26_neoA] | Yes | Yes | medium | Yes | Yes |
| LLSAGIFGV [27_neoA] | Yes | Yes | high | No | No |
| LLTGRLQSV [24_neoA] | – | Yes | high | – | No |
| LLWLIINLV [28_neoA] | Yes | Yes | high | No | No |
| LVSAGIFGV [27_neoB] | Yes | Yes | high | Yes | Yes |
| MLAKALRKV [30_wt] | Yes | Yes | high | No | No |
| MMISAGFSL [31_wt] | Yes | – | – | – | – |

| Substance | Patient response (human PBMC) | ELIspot (YES/NO) (HLA-A2.1 transgenic mice [1]) | tetramer response (HLA-A2.1 transgenic mice [2]) | Trm (response) (HLA-A2.1 transgenic mice [3]) | Trm response (HLA-A2.1 transgenic mice [3]) |
| --- | --- | --- | --- | --- | --- |
| NLIDSYFVV [32_wt] | Yes | Yes | medium | Yes | Yes |
| NLLKDCPAV [33_wt] | – | Yes | medium | – | No |
| NLNESLIDL [34_wt] | – | No | medium | – | No |
| QLEMELTPV [36_wt] | Yes | No | medium | Yes | Yes |
| RLMTWLDMV [37_neoA] | Yes | Yes | high | No | No |
| RLNEVAKNV [38_neoA] | – | No | high | – | No |
| RLNQLESKV [39_neoA] | – | No | medium | – | Yes |
| RTMTWLDMI [37_neoB] | Yes | Yes | high | No | No |
| SAPGVFCGV [41_neoB] | YES | Yes | high | No | No |
| SAWALIISV [42_neoB] | Yes | Yes | high | Yes | Yes |
| SLIAYTMSV [40_neoA] | – | Yes | medium | – | No |
| SMWALIISV [42_wt] | Yes | Yes | high | Yes | Yes |
| VLFLHVTYV [48_neoA] | Yes | Yes | high | No | No |
| VLMAPISAV [46_neoA] | – | Yes | medium | – | No |
| VLPTKLNDV [47_neoA] | Yes | No | medium | Yes | Yes |
| VSFLHVTYV [48_neoB] | Yes | Yes | high | Yes | Yes |
| VVFLHVTYV [48_wt] | Yes | Yes | high | No | No |
| WLMWLIINL [49_wt] | – | No | high | – | No |
| YLMADLVYT [55_neoB] | – | Yes | medium | – | No |
| YLNSTNVTV [51_neoA] | – | Yes | high | – | Yes |
| YLYALVYFV [54_neoA] | – | Yes | high | – | Yes |
| l_neoA (ALNTLVKQV) | Yes | Yes | high | Yes | Yes |
